# From article PMC8226449, “In Vitro Evaluation of the Squaramide-Conjugated Fibroblast Activation Protein Inhibitor-Based Agents AAZTA^5.SA.FAPi and DOTA.SA.FAPi” (Molecules, 2021)
# Where two headings read alike, the source gives them in different places.
# Key:
# DPPs (DPP4 and DPP9) = assay: Counter-screening against DPP4 and DPP9 (Ala-Pro-pNA substrate); format: biochemical, human; conditions: screened at 10 µM and 1 µM, reported as >1 µM if remaining activity more than 50% at 1 µM, n = 2
# Description: (§1) Enzymes: Recombinant human FAP and PREP were expressed and purified as published. Recombinant human dipeptidyl 9 (DPP9) was purified as described by De Decker et al.. Human dipeptidyl peptidase 4 was purified from seminal plasma as published.
# (§2) IC50 measurements and counter-screening: IC50-measurements of the probes for FAP and PREP were carried out as published, using, respectively, Z-Gly-Pro-AMC and Suc-Gly-Pro-AMC as the substrate. IC50 experiments were repeated in triplicate, and the results are presented as mean ± standard deviation. Methods and data fitting were performed as published earlier. Screening against DPP4 and DPP9 was performed at final probe concentrations of 10 µM and 1 µM using Ala-Pro-paranitroanilide (pNA) as the substrate at the respective final concentrations of 25 μM (DPP4) and 150 μM (DPP9) at pH 7.4 (0.05 M HEPES-NaOH buffer with 0.1% Tween-20, 0.1 mg/mL BSA, and 150 mM NaCl). Probes were pre-incubated with the respective enzyme for 15 min at 37 °C; afterwards, the substrate was added, and the velocities of pNA release were measured kinetically at 405 nm for at least 10 min at 37 °C. Measurements were executed using the Infinite 200 (Tecan Group Ltd., Mennendorf, Switzerland), and the Magellan software was used to process the data.
# [1] = Stability of radiolabelled complexes in PBS, saline (NaCl) and ethanol; format: physicochemical; conditions: 37 °C; for intact conjugate (stability): PBS and NaCl
# Description: (§3) Labeling was carried out with 100–150 MBq gallium-68 in 300 µL of 1 M ammonium acetate (AmAc) buffer pH 5.5 and with 30–40 MBq scandium-44 in 1 mL of 0.25 M AmAc pH 4.0, and aliquots were taken at 1, 3, 5, 10, and 15 min. For lutetium-177, activity of 30–40 MBq in 300 µL of 1 M AmAc pH 5.5 was used, and aliquots were taken at 1, 3, 5, 15, 30, and 60 min. Stability was tested in 500 µL of human serum, phosphate-buffered saline, ethanol, and saline (0.9% isotonic NaCl solution) using ~5 MBq of tracer solution with >95% radiochemical purity. […] HS (human male AB plasma, USA origin) and PBS were purchased from Sigma Aldrich, and 0.9% saline from B. Braun Melsungen AG (Melsungen, Germany).
# [2] = Stability of radiolabelled complexes in human serum; format: in vitro ADME; conditions: human serum (HS), 37 °C
# Description: as §3
# [3] = Lipophilicity (logD) by shake-flask method; format: physicochemical; conditions: pH = 7.4, 1-octanol/PBS
# Description: Lipophilicity (logD value) was determined via the “shake-flask” method. For both precursors AAZTA^5.SA.FAPi and DOTA.SA.FAPi logD (pH = 7.4), values were measured for the ^68Ga- and ^44Sc complexes.
# Lipophilicity of [^68Ga]Ga-AAZTA^5.SA.FAPi, [^44Sc]Sc-AAZTA^5.SA.FAPi and [^68Ga]Ga-DOTA.SA.FAPi was determined using the “shake-flask” methodology. After reaction of the precursor with the respective radionuclide, the reaction solution was adjusted to pH 7.4 with NaOH. Aliquots of ~5 MBq for the ^68Ga complexes and of ~3 MBq for the ^44Sc-complexed were taken and adjusted to a total volume of 700 μL with PBS (n= 4). 700 μL 1-octanol was added, and the solution was shaken for 2 min (1500 rpm). Afterwards, each tube was centrifuged for 2 min. 400 μL of the octanol- and PBS phases were pipetted in new tubes, and aliquots of each phase (3 µL of the PBS phase and 6 μL of the octanol phase) were measured via radio-TLC. The PBS phases were adjusted to 700 µL, and 700 μL octanol was added to each tube. The procedure was repeated twice. LogD values were calculated as the logarithm of the octanol/PBS ratio.
# Recombinant human FAP [4] = target: T1, Recombinant human FAP (Homo sapiens, UniProt Q12884); assay: FAP inhibition assay (IC50, Z-Gly-Pro-AMC substrate); format: biochemical; conditions: for IC50: mean with standard deviation, n = 3; for Selectivitiy Index (FAP/PREP): ratio of PREP IC50 and FAP IC50
# T1 construct: made in house
# T1 sequence (Q12884 1-760): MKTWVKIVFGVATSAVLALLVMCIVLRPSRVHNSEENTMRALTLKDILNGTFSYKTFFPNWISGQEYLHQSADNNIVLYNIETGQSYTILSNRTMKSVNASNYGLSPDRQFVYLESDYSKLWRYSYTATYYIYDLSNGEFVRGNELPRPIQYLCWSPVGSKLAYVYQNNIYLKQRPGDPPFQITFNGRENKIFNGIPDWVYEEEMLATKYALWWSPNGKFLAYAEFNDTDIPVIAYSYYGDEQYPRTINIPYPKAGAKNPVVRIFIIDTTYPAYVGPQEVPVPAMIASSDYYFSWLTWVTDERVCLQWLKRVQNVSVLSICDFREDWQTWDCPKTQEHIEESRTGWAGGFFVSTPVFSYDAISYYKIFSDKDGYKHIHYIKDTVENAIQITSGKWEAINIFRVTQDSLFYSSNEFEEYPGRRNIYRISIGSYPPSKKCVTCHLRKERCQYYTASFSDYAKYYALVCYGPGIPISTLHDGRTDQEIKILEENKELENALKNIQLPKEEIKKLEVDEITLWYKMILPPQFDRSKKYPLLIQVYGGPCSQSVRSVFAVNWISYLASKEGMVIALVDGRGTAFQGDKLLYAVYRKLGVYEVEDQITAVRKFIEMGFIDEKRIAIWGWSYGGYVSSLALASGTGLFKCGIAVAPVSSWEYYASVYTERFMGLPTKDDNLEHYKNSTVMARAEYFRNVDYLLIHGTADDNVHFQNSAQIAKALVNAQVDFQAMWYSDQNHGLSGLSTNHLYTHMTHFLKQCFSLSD
# Description: as §1, §2
# Recombinant human PREP [5] = target: T2, Recombinant human PREP (Homo sapiens, UniProt P48147); assay: PREP inhibition assay (IC50, Suc-Gly-Pro-AMC substrate); format: biochemical; conditions: mean with standard deviation, n = 3
# T2 construct: made in house
# T2 sequence (P48147 1-710): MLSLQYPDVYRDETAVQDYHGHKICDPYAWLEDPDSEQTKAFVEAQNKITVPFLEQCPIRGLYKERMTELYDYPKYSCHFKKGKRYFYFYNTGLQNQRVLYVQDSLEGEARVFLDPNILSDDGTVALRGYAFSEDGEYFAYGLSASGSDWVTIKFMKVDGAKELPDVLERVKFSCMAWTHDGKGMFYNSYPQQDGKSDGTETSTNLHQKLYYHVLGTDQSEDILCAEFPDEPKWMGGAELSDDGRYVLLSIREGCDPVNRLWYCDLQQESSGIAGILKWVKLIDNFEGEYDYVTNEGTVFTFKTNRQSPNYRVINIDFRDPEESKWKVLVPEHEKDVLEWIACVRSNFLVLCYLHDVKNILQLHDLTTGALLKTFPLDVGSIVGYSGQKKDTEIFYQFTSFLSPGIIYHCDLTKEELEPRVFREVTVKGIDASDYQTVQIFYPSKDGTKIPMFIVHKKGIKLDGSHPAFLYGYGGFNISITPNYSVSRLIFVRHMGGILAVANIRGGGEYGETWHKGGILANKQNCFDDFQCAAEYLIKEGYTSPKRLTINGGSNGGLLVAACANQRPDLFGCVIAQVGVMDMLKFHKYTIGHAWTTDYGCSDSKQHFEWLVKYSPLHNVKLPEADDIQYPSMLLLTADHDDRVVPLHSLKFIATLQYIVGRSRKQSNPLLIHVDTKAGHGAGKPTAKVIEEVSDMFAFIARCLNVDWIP
# Description: as §1, §2
# Recombinant human PREP [6] = target: T2, Recombinant human PREP; conditions: mean with standard deviation; ref Moon et al. [24]; cited from earlier work
# Recombinant human FAP [7] = target: T1, Recombinant human FAP; parameters: method as in Moon et al. [24]; conditions: mean with standard deviation; ref Moon et al. [24]; cited from earlier work
smiles,measurement,setting,value
"N#C[C@@H]1CC(F)(F)CN1C(=O)CNC(=O)c1ccnc2ccccc12 [UAMC1110-FAP inhibitor, reference compound]",IC50,DPPs (DPP4 and DPP9),> 10000 nM
N#C[C@@H]1CC(F)(F)CN1C(=O)CNC(=O)c1ccnc2ccc(OCCCCNc3c(NCCNC(=O)CN4CCN(CC(=O)[O-])CCN(CC(=O)[O-])CCN(CC(=O)[O-])CC4)c(=O)c3=O)cc12.[44Sc+3] [[^44Sc]Sc-DOTA.SA.FAPi],intact conjugate (stability),[1]; 8 h,> 97%
same,intact conjugate (stability),[2]; 8 h,> 97%
N#C[C@@H]1CC(F)(F)CN1C(=O)CNC(=O)c1ccnc2ccc(OCCCCNc3c(NCCNC(=O)CN4CCN(CC(=O)[O-])CCN(CC(=O)[O-])CCN(CC(=O)[O-])CC4)c(=O)c3=O)cc12.[177Lu+3] [[^177Lu]Lu-DOTA.SA.FAPi],intact conjugate (stability),[1]; 3 d,> 98%
same,intact conjugate (stability),[1]; 10 days,> 93%
same,intact conjugate (stability),[2]; 10 days,> 99%
N#C[C@@H]1CC(F)(F)CN1C(=O)CNC(=O)c1ccnc2ccc(OCCCCNc3c(NCCNC(=O)CCCCC4(N(CC(=O)[O-])CC(=O)[O-])CN(CC(=O)[O-])CCN(CC(=O)[O-])C4)c(=O)c3=O)cc12.[177Lu+3] [[^177Lu]Lu-AAZTA^5.SA.FAPi],intact conjugate (stability),[1]; 2 d,> 99%
same,intact conjugate (stability),[1]; 3 d,> 98%
same,intact conjugate (stability),[1]; 10 days,> 95%
same,intact conjugate (stability),[2]; 1 h,> 99%
same,intact conjugate (stability),[2]; 3 h,> 98%
same,intact conjugate (stability),[2]; 1 d,> 83%
same,intact conjugate (stability),[2]; 2 d,> 64%
same,intact conjugate (stability),[2]; 3 d,> 55%
N#C[C@@H]1CC(F)(F)CN1C(=O)CNC(=O)c1ccnc2ccc(OCCCCNc3c(NCCNC(=O)CCCCC4(N(CC(=O)[O-])CC(=O)[O-])CN(CC(=O)[O-])CCN(CC(=O)[O-])C4)c(=O)c3=O)cc12.[68Ga+3] [[^68Ga]Ga-AAZTA^5.SA.FAPi],intact complexes (stability),"[1]; ethanol (EtOH) and saline (NaCl), over 2 h",> 99.9%
same,intact complexes (stability),[2]; over 2 h,> 99.9%
same,LogD7.4,[3],−2.53 ± 0.13
N#C[C@@H]1CC(F)(F)CN1C(=O)CNC(=O)c1ccnc2ccc(OCCCCNc3c(NCCNC(=O)CCCCC4(N(CC(=O)[O-])CC(=O)[O-])CN(CC(=O)[O-])CCN(CC(=O)[O-])C4)c(=O)c3=O)cc12.[Lu+3] [[^natLu]Lu-AAZTA^5.SA.FAPi],IC50,Recombinant human FAP [4],0.55 ± 0.04 nM
same,Selectivitiy Index (FAP/PREP),Recombinant human FAP [4],5818
same,IC50,DPPs (DPP4 and DPP9),> 1000 nM
same,IC50,Recombinant human PREP [5],3200 ± 600 nM
"CN(CC(=O)O)C1(CCCCC(=O)NCCNc2c(NCCCCOc3ccc4nccc(C(=O)NCC(=O)N5CC(F)(F)C[C@H]5C#N)c4c3)c(=O)c2=O)CN(CC(=O)O)CCN(CC(=O)O)C1 [DATA^5m.SA.FAPi, reference compound]",Selectivitiy Index (FAP/PREP),Recombinant human FAP [4],2113
same,IC50,Recombinant human PREP [6],1700 ± 100 nM
same,IC50,Recombinant human FAP [7],0.8 ± 0.2 nM
N#C[C@@H]1CC(F)(F)CN1C(=O)CNC(=O)c1ccnc2ccc(OCCCCNc3c(NCCNC(=O)CCCCC4(N(CC(=O)[O-])CC(=O)[O-])CN(CC(=O)[O-])CCN(CC(=O)[O-])C4)c(=O)c3=O)cc12.[Sc+3] [[^natSc]Sc-AAZTA^5.SA.FAPi],IC50,Recombinant human FAP [4],0.57 ± 0.04 nM
same,Selectivitiy Index (FAP/PREP),Recombinant human FAP [4],6316
same,IC50,DPPs (DPP4 and DPP9),> 1000 nM
same,IC50,Recombinant human PREP [5],3600 ± 800 nM
N#C[C@@H]1CC(F)(F)CN1C(=O)CNC(=O)c1ccnc2ccc(OCCCCNc3c(NCCNC(=O)CN4CCN(CC(=O)[O-])CCN(CC(=O)[O-])CCN(CC(=O)[O-])CC4)c(=O)c3=O)cc12.[Ga+3] [[^natGa]Ga-DOTA.SA.FAPi],Selectivitiy Index (FAP/PREP),Recombinant human FAP [4],6214
same,IC50,DPPs (DPP4 and DPP9),> 1000 nM
same,IC50,Recombinant human PREP [6],8700 ± 900 nM
same,IC50,Recombinant human FAP [7],1.4 ± 0.2 nM
N#C[C@@H]1CC(F)(F)CN1C(=O)CNC(=O)c1ccnc2ccc(OCCCCNc3c(NCCNC(=O)CCCCC4(N(CC(=O)O)CC(=O)O)CN(CC(=O)O)CCN(CC(=O)O)C4)c(=O)c3=O)cc12 [AAZTA^5.SA.FAPi],IC50,Recombinant human FAP [4],0.56 ± 0.02 nM
same,Selectivitiy Index (FAP/PREP),Recombinant human FAP [4],4286
same,IC50,DPPs (DPP4 and DPP9),> 1000 nM
same,IC50,Recombinant human PREP [5],2400 ± 400 nM
N#C[C@@H]1CC(F)(F)CN1C(=O)CNC(=O)c1ccnc2ccc(OCCCCNc3c(NCCNC(=O)CN4CCN(CC(=O)[O-])CCN(CC(=O)[O-])CCN(CC(=O)[O-])CC4)c(=O)c3=O)cc12.[Lu+3] [[^natLu]Lu DOTA.SA.FAPi],Selectivitiy Index (FAP/PREP),Recombinant human FAP [4],3125
same,IC50,DPPs (DPP4 and DPP9),> 1000 nM
same,IC50,Recombinant human PREP [6],2500 ± 400 nM
same,IC50,Recombinant human FAP [7],0.8 ± 0.2 nM
